Reference: PMC10901950, “Neuroprotective and Anti-inflammatory Effects of Rubiscolin-6 Analogs with Proline Surrogates in Position 2” (Neurochemical Research, 2023)

Columns and labels:
SH-SY5Y cells [1] = assay: Neuroprotection in 6-OHDA-treated SH-SY5Y cells (MTT); type: cell-based, human; conditions: 6-OHDA 100 µM, 24 h, vehicle 100.00 ± 4.60%
Experimental: The neuroprotective experiments were performed in an in vitro model of a human neuroblastoma cell line (SH-SY5Y) obtained from the German Collection of Microorganisms and Cell Cultures GmbH (DSMZ) Bank (ACC 209). Cells were cultured in Dulbecco’s Modified Eagle’s Medium: Nutrient Mixture F12 (DMEM:F12) supplemented with 1% antibiotic/antimycotic (Amphotericin B, Penicillin and Streptomycin) (Biowest, Nuaillé, France) and 10% (v/v) Fetal Bovine Serum (FBS) (Biowest, Riverside, MO, USA). The anti-inflammatory experiments were performed in an in vitro model of mouse macrophage-like RAW 264.7 cells, purchased from American Type Culture Collection (ATCC, Manassas, VA, USA). Cells were maintained in DMEM medium (Gibco™, Grand Island, NY) and supplemented with 10% bovine calf serum (BCS) (Gibco™, Grand Island, NY) and 1% penicillin–streptomycin (Sigma-Aldrich, St. Louis, MO, USA). Cell cultures were kept at 37 °C in 5% CO2/humidified air.
Cells were incubated with peptides (0.1–10 µM) for 24 h to assess their cytotoxic activity. In the neuroprotective model, SH-SY5Y cells were exposed to 6-OHDA (100 µM) in the absence/presence of peptide at non-toxic concentrations (0.1–10 µM). When needed, a 30 min pre-incubation step with β-funaltrexamine (β-FNA, µ-opioid receptor antagonist, 10 µM), naltrindole (NLT, δ-opioid receptor antagonist, 10 µM), 2’-amino-3’-methoxyflavone (PD 98059, MAPK kinase 1 (MEK 1) inhibitor, 50 µM) or 2-(4-morpholinyl)-8-phenyl-4H-1-benzopyran-4-one (LY 294002, PI3-K inhibitor, 20 µM). Stimulation was terminated by aspiration of the medium and adding 100 µL MTT (1.2 mM) per well. Cells were incubated for 1 h at 37 °C. After this time, MTT was removed, and 100 µL DMSO was added. The resulting absorbance was read in a microplate reader (Biotek, Epoch/2 microplate reader, Winooski, VT, USA) at 570 nm.
Cell metabolic activity (cytotoxicity) was calculated as the percentage of the value obtained for cells incubated with compounds compared to control cells treated with the medium.

SH-SY5Y cells [2] = assay: Intracellular ROS production in 6-OHDA-treated SH-SY5Y cells; type: cell-based, human; conditions: 6-OHDA 100 µM
Experimental: (§1) The detection of ROS generated in injured cells was evaluated using the 5(6)-carboxy-2ʹ,7ʹ-dichlorofluorescein diacetate (carboxy-H2DCFDA) reagent (Invitrogen, Bleiswijk, Netherlands). After incubation, cells were washed with ice-cold Phosphate-Buffer Saline (PBS). Then, the carboxyl-H2DCFDA (100 µL, 20 µM) reagent was added and incubated for 1 h at 37 °C. Finally, the fluorescence intensity was measured at wavelengths of […], and ROS levels were presented in percentage of control (non-treated cells).

SH-SY5Y cells [3] = assay: Mitochondrial membrane potential (JC-1) in 6-OHDA-treated SH-SY5Y cells; type: cell-based, human; conditions: 6-OHDA 100 µM, 6 h, JC-1
Experimental: Mitochondrial function was assessed by monitoring changes in MMP (∆Ψm) using the fluorescent probe, JC-1 fluorescence dye (5,5′,6,6′-tetrachloro-1,1′,3,3′-tetraethyl-imidacarbocyanine iodide, Molecular Probes, T3168, Eugene, Oregon, USA). The assay was performed according to the method described by Silva et al.. Briefly, SH-SY5Y cells were exposed 6 h to 6-OHDA (100 μM) in the presence or absence of peptides. After incubation, cells were washed with ice-cold PBS, and then JC-1 reagent (3 µM, 200 µL) was added for 15 min at 37 °C. Afterwards, JC-1 was removed, and cells were washed with PBS. The formation of JC-1 aggregates (490 nm of excitation and 590 nm of emission) and the monomeric form of JC-1 (490 nm of excitation and 530 nm of emission) was accompanied simultaneously in the plate reader for 30 min. Results were expressed as the ratio of the monomers/aggregates of JC-1 in the percentage of control.

AKT = assay: Western blot, AKT phosphorylation in 6-OHDA-treated SH-SY5Y cells; type: cell-based, human; conditions: peptide 10 µM, 2.5-10 min, 6-OHDA 100 µM treated cells
Experimental: The neuroblastoma SH-SY5Y cells were grown in a 6-well plate and when 80–90% confluent treated with 6-OHDA (100 µM) for 24 h. Then cells were stimulated with peptides for 2.5, 5, 7.5 and 10 min (for AKT) or 24 h (for mTOR). When needed, a 30 min pre-incubation step with LY 294002 was included before analogs and 6-OHDA addition. Stimulation was terminated by aspiration of the medium. Cells were washed 2 times with ice-cold PBS, and then 200 µL of ice-cold lysis buffer [150 mM NaCl, 20 mM Tris–HCl, glycerol, 5 mM EDTA, 0.5 mM phenylmethylsulphonylfluoride (PMSF), 10% Triton X-100, 100 mM protease inhibitors, pH 7.4] was added. Cells were incubated on ice for 15 min. Lysates were then centrifuged at 12,000×g for 10 min at 4 °C, and the supernatants were used as the total cell lysates. The protein content in the supernatants was quantified using the Bio-Rad protein assay kit. Equal amounts of protein were separated on 10% sodium dodecyl sulfate (SDS)-polyacrylamide gels and transferred to polyvinylidene difluoride membranes from (PVDF, Millipore, Cork, Ireland). Non-specific binding was blocked with tris-buffered saline Tween-20 (TBS-T: 150 mM NaCl, 20 mM Tris–HCl, 0.1% Tween 20, pH 7.5) containing 5% nonfat milk for 2 h at room temperature. Then, the membrane was incubated overnight at 4 °C with one of the following specific primary antibodies: Vinculin (1:1000 dilution; Cell Signalling Technology, Danvers, MA, USA), p-AKT (1:1000 dilution; Cell Signalling Technology, Danvers, MA, USA), AKT (1:1000 dilution; Cell Signalling Technology, Danvers, MA, USA), p-mTOR (1:1000 dilution; Cell Signalling Technology, Danvers, MA, USA), mTOR (1:1000 dilution; Cell Signalling Technology, Danvers, MA, USA). After incubation, membranes were washed six times per 5 min with TBS-T. In the next step, membranes were incubated with HRP-conjugated secondary antibodies (1:1000 dilution; Cell Signalling Technology, Danvers, MA, USA) for 1 h. Following six washes with TBS-T, the protein bands were detected with the Clarity Western ECL reagent from Bio-Rad. The band intensity was quantified by NIH ImageJ densitometric analysis. For quantification, specific phosphorylation was calculated as the ratio of phosphorylated AKT or mTOR signals to the total Akt or mTOR signal detected. Values of unstimulated samples were set to 1.0. The original immunoblots are provided in Supplementary data.

[4] = test system: LPS-stimulated RAW 264.7 cells; assay: Nitric oxide production in LPS-stimulated RAW 264.7 cells (Griess); type: cell-based, mouse; conditions: LPS 1 µg/mL
Experimental: The level of NO production was determined in RAW 264.7 cells. Briefly, after cells attachment, they were treated with LPS (Millipore Sigma, Darmstadt, Germany) at 1 µg/mL for 24 h, and then the peptides were added for an additional 24 h. After cells’ treatment, the medium was collected, and the accumulation of NO metabolite in the cell culture supernatant was measured using Griess reagent (1% sulfanilamide and 0.1% naphthylethylenediamine dihydrochloride; Sigma Aldrich), where 50 µL of the supernatant was mixed with 50 µL of Griess reagent (40 mg/mL) in a 96-well plate. After incubation at room temperature and darkness for 10 min, the absorbance was measured at 540 nm. Cells treated with LPS without samples were used as the positive control of the inflammatory response.

[5] = test system: LPS-stimulated RAW 264.7 cells; assay: Intracellular ROS formation in LPS-stimulated RAW 264.7 cells; type: cell-based, mouse; conditions: LPS 1 µg/mL
Experimental: The cytotoxic and anti-inflammatory effects of peptides on RAW 264.7 cells were estimated using MTT assay. Cells were incubated with peptides (0.1–10 µM) for 24 h to assess their cytoprotective activity. In the anti-inflammatory model, RAW 264.7 cells were exposed to LPS (Millipore Sigma, Darmstadt, Germany) at 1 µg/mL in the absence/presence of peptide at non-toxic concentrations (0.1–10 µM). Then, the MTT reagent was added to wells, and cells were incubated for 1.5 h at 37 °C. After this time, MTT was removed, 100 µL DMSO was added, and the resulting absorbance was read in a microplate reader (Synergy 2 BioTek Microplate Reader, Winooski, VT, USA) at 570 nm.
as §1

Caspase-3 = Caspase-3 activity in 6-OHDA-treated SH-SY5Y cells; type: cell-based, human; conditions: STAU 1 µM, positive control
Experimental: Caspase-3 activity was assessed using “Caspase-3 fluorometric assay” (Sigma, St. Louis, MO, USA) with minor changes adapted by Silva et al.. The cells were treated with 6-OHDA (100 µM) for 6 h in the presence or absence of peptides. After this period, the culture medium was removed, and cells were rinsed with ice-cold PBS and collected by centrifugation at 3300×g for 5 min. The pellets were resuspended in lysis buffer, incubated for about 20 min on ice and finally centrifuged at 22,500×g, 4 °C, for 20 min. Cell lysates were processed following the manufacturer’s protocol, and fluorescence was read at wavelengths of 360 nm (excitation) and 460 nm (emission). Caspase-3 activity was calculated through the curve slope and presented as Δ fluorescence (a.u.)/mg of protein/min). Staurosporine (STAU, 1 µM) was used as positive control.

Compound: NCCc1cc(O)c(O)cc1O [6-OHDA, 6-hydroxydopamine, reference compound]
- viable cells after 6-OHDA exposure (SH-SY5Y cells [1]): 48.63 ± 1.25 % of viable cells
- increase of ROS levels compared with vehicle (SH-SY5Y cells [2]): around 80%
- increase of MMP depolarization compared to vehicle (SH-SY5Y cells [3]): 114%
- AKT phosphorylation (AKT): blocked

Compound: lipopolysaccharide [LPS, reference compound]
- NO levels compared to the unstimulated control [4]: exceeded 330%
- ROS level compared to the control [5]: increased almost twice

Compound: CN[C@@H]1C[C@H]2O[C@@](C)([C@@H]1OC)n1c3ccccc3c3c4c(c5c6ccccc6n2c5c31)C(=O)NC4 [STAU, Staurosporine, reference compound]
- effect on Caspase-3 activity (Caspase-3): marked increase
